From ChEMBL document CHEMBL5096214, “Discovery of a new class of valosine containing protein (VCP/P97) inhibitors for the treatment of colorectal cancer” (Bioorg Med Chem, 2022)
Active and inactive are the calls of the source. The calls are words filed in the database; no cut-off is given here.

How the values were obtained:
[1] = target: Transitional endoplasmic reticulum ATPase (Homo sapiens, UniProt P55072); test: Inhibition of p97 (unknown origin) using ATP as substrate incubated for 60 mins by ADP-Glo reagent based luminescence assay
Transitional endoplasmic reticulum ATPase, sequence (P55072 whole entry): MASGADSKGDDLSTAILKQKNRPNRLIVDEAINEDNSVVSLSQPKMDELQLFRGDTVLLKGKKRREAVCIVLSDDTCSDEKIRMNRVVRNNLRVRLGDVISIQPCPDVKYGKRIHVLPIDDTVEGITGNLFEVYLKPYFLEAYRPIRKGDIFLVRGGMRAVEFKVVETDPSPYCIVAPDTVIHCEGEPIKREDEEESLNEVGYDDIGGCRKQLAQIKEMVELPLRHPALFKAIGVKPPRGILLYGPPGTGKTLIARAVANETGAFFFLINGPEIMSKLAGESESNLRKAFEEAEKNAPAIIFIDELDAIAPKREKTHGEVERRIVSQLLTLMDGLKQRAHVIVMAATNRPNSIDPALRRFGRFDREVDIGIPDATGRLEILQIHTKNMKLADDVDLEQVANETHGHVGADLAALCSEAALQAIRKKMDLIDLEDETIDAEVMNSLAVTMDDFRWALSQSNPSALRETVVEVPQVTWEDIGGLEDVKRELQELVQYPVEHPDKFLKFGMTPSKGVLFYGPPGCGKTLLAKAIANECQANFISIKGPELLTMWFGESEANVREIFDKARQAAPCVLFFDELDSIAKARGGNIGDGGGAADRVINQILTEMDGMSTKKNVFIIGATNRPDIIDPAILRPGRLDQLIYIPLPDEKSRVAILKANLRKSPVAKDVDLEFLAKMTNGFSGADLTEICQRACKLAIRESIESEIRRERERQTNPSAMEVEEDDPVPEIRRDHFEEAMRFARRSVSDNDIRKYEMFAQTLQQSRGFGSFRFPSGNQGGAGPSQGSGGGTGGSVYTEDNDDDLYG

[2] = test system: HCT-116; test: Anti-proliferative activity against human HCT-116 cells assessed as inhibition of cell proliferation incubated for 72 hrs by CellTiter-Glo luminescent assay; type: functional, cell-based; details: HCT-116, 72 h
[3] = Half life in human liver microsomes at 1 uM in presence of beta-NADPH measured for 60 mins by LC-MS/MS analysis; type: ADME, Microsome
[4] = Intrinsic clearance in monkey liver microsomes at 1 uM in presence of beta-NADPH measured for 60 mins by LC-MS/MS analysis; type: ADME, Macaca mulatta, Microsome; details: rhesus monkey, read-out: CLH
[5] = Half life in rat liver microsomes at 1 uM in presence of beta-NADPH measured for 60 mins by LC-MS/MS analysis; type: ADME, Microsome
[6] = Elimination half life in Sprague-Dawley rat at 10 mg/kg, po measured for 30 hrs by LC-MS/MS analysis; type: ADME, organism-based; details: in vivo, read-out: beta t1/2 (converted)
[7] = Oral bioavailability in Sprague-Dawley rat at 10 mg/kg measured for 30 hrs by LC-MS/MS analysis; type: ADME, organism-based; details: in vivo
[8] = Half life in mouse liver microsomes at 1 uM in presence of beta-NADPH measured for 60 mins by LC-MS/MS analysis; type: ADME, Microsome
[9] = Toxicity in BALB/c mouse xenografted with human HCT-116 cells assessed as side effects at 50 mg/kg, po qd for 21 days; type: organism-based; details: in vivo, 504 h, time 21 day
[10] = Intrinsic clearance in dog liver microsomes at 1 uM in presence of beta-NADPH measured for 60 mins by LC-MS/MS analysis; type: ADME, Canis lupus familiaris, Microsome; details: read-out: CLH
[11] = AUC (0 to infinity) in Sprague-Dawley rat at 10 mg/kg, po by LC-MS/MS analysis; type: ADME, organism-based; parameters: time infinity, dose 10 mg/kg, route po; details: in vivo
[12] = Half life in dog liver microsomes at 1 uM in presence of beta-NADPH measured for 60 mins by LC-MS/MS analysis; type: ADME, Canis lupus familiaris, Microsome
[13] = AUC (0 to infinity) in Sprague-Dawley rat at 1 mg/kg, iv by LC-MS/MS analysis; type: ADME, organism-based; parameters: time infinity, dose 1 mg/kg, route iv; details: in vivo
[14] = AUC (0 to t) in Sprague-Dawley rat at 1 mg/kg, iv measured for 24 hrs by LC-MS/MS analysis; type: ADME, organism-based; parameters: time 24 hrs, dose 1 mg/kg, route iv; details: in vivo
[15] = MRT in Sprague-Dawley rat at 1 mg/kg, iv measured for 24 hrs by LC-MS/MS analysis; type: ADME, organism-based; details: in vivo
[16] = Intrinsic clearance in mouse liver microsomes at 1 uM in presence of beta-NADPH measured for 60 mins by LC-MS/MS analysis; type: ADME, Microsome; details: read-out: CLH
[17] = Toxicity in BALB/c mouse xenografted with human HCT-116 cells assessed as body weight loss at 100 mg/kg, po measured on day 4; type: organism-based; details: in vivo, 96 h, time 4 day
[18] = Toxicity in BALB/c mouse xenografted with human HCT-116 cells assessed as side effects at 100 mg/kg, po measured on day 4; type: organism-based; details: in vivo, 96 h, time 4 day
[19] = MRT in Sprague-Dawley rat at 10 mg/kg, po measured for 30 hrs by LC-MS/MS analysis; type: ADME, organism-based; details: in vivo
[20] = Intrinsic clearance in human liver microsomes at 1 uM in presence of beta-NADPH measured for 60 mins by LC-MS/MS analysis; type: ADME, Microsome; details: read-out: CLH
[21] = Elimination half life in Sprague-Dawley rat at 1 mg/kg, iv measured for 24 hrs by LC-MS/MS analysis; type: ADME, organism-based; details: in vivo, read-out: beta t1/2 (converted)
[22] = Tmax in Sprague-Dawley rat at 10 mg/kg, po measured for 30 hrs by LC-MS/MS analysis; type: ADME, organism-based; details: in vivo
[23] = AUC (0 to t) in Sprague-Dawley rat at 10 mg/kg, po measured for 30 hrs by LC-MS/MS analysis; type: ADME, organism-based; parameters: dose 10 mg/kg, time 30 hrs, route po; details: in vivo
[24] = Cmax in Sprague-Dawley rat at 10 mg/kg, po measured for 30 hrs by LC-MS/MS analysis; type: ADME, organism-based; parameters: dose 10 mg/kg, time 30 hrs, route po; details: in vivo
[25] = Toxicity in BALB/c mouse xenografted with human HCT-116 cells assessed as animals death at 100 mg/kg, po measured on day 8; type: organism-based; details: in vivo, 192 h, time 8 day
[26] = Half life in monkey liver microsomes at 1 uM in presence of beta-NADPH measured for 60 mins by LC-MS/MS analysis; type: ADME, Macaca mulatta, Microsome; details: rhesus monkey
[27] = Toxicity in BALB/c mouse xenografted with human HCT-116 cells assessed as body weight loss at 50 mg/kg, po qd for 21 days; type: organism-based; details: in vivo, 504 h, time 21 day
[28] = Intrinsic clearance in rat liver microsomes at 1 uM in presence of beta-NADPH measured for 60 mins by LC-MS/MS analysis; type: ADME, Microsome; details: read-out: CLH
[29] = Tmax in Sprague-Dawley rat at 1 mg/kg, iv measured for 24 hrs by LC-MS/MS analysis; type: ADME, organism-based; details: in vivo
[30] = Cmax in Sprague-Dawley rat at 1 mg/kg, iv measured for 24 hrs by LC-MS/MS analysis; type: ADME, organism-based; parameters: dose 1 mg/kg, time 24 hrs, route iv; details: in vivo
[31] = Toxicity in BALB/c mouse xenografted with human HCT-116 cells assessed as side effects at 100 mg/kg, po qd for 21 days; type: organism-based; details: in vivo, 504 h, time 21 day
[32] = Toxicity in BALB/c mouse xenografted with human HCT-116 cells assessed as body weight loss at 100 mg/kg, po qd for 21 days; type: organism-based; details: in vivo, 504 h, time 21 day
[33] = test system: HCT-116; test: Anti-tumor activity against human HCT-116 cells xenografted in BALB/c mouse assessed as reduction in tumor volume at 100 mg/kg, po qd for 21 days; type: functional, organism-based; details: time 21.0 day

`Cc1cc2c(NC(=O)c3cscn3)cccc2n1-c1nc2c(c(NCc3cccc(O)c3)n1)CCC2` gave an IC50 [1] of 216 nM.

Work on `Cc1cc2c(NS(C)(=O)=O)cccc2n1-c1nc2c(c(NCc3cccc(O)c3)n1)CCC2` yielded an IC50 [2] of 800 nM and an IC50 [1] of 97 nM.

With `CON(C)C(=O)c1cccc2c1cc(C)n2-c1nc2c(c(NCc3cccc(B(O)O)c3)n1)CCC2` the IC50 [1] was 1220 nM.

Molecule `Cc1cc2c(C(N)=O)cccc2n1-c1nc2c(c(NCc3ccccc3)n1)CCCN2` has a half-life at 1 µM [3] of 35.9 min, a microsomal CLint at 1 µM [4] of 203 µL/min/mg and a half-life at 1 µM [5] of 7.9 min. For the same molecule, the half-life [6] was 73.8 min, the bioavailability [7] was 20% and the half-life at 1 µM [8] was 19.1 min. The Activity [9] was “Non-Toxic”, the microsomal CLint at 1 µM [10] was 60 µL/min/mg and the AUC(0-inf) [11] was 796 ng·h/mL. The half-life at 1 µM [12] was 33 min, the AUC(0-inf) [13] was 398 ng·h/mL and the AUC(0-t) at 24 h [14] was 390 ng·h/mL. It also gave an MRT [15] of 25.2 min, an IC50 [2] of 700 nM and a microsomal CLint at 1 µM [16] of 176 µL/min/mg. The Activity [17] was “Toxic”, the Activity [18] was “Toxic” and the MRT [19] was 96 min. The microsomal CLint at 1 µM [20] was 36.5 µL/min/mg, the half-life [21] was 22.8 min and the Tmax [22] was 30 min. For the same molecule, the AUC(0-t) at 30 h [23] was 779 ng·h/mL, the Cmax [24] was 444 ng/mL and the Activity [25] was “Toxic”. The half-life at 1 µM [26] was 9.8 min, the IC50 [1] was 44 nM and the Activity [27] was “Non-Toxic”. The microsomal CLint at 1 µM [28] was 318 µL/min/mg.

`CCONC(=O)c1cccc2c1cc(C)n2-c1nc2c(c(NCc3cccc(O)c3)n1)CCC2` showed an IC50 [2] of 600 nM and an IC50 [1] of 31 nM.

Molecule `Cc1cc2c(C(N)=O)cccc2n1-c1nc2c(c(NCc3cccc(O)c3)n1)CCC2` has a half-life at 1 µM [3] of 37.1 min, a microsomal CLint at 1 µM [4] of 58.2 µL/min/mg and a half-life at 1 µM [5] of 10.5 min. The half-life [6] was 228 min, the Tmax [29] was 4.8 min and the bioavailability [7] was 23.5%. The half-life at 1 µM [8] was 28.8 min, the Cmax [30] was 284 ng/mL and the microsomal CLint at 1 µM [10] was 39.8 µL/min/mg. It also gave an AUC(0-inf) [11] of 345 ng·h/mL, a half-life at 1 µM [12] of 34.8 min and an AUC(0-inf) [13] of 147 ng·h/mL. It also gave an AUC(0-t) at 24 h [14] of 142 ng·h/mL, an MRT [15] of 67.2 min and an IC50 [2] of 400 nM. For the same molecule, the microsomal CLint at 1 µM [16] was 48.2 µL/min/mg, the Activity [31] was “Non-Toxic” and the MRT [19] was 276 min. The microsomal CLint at 1 µM [20] was 37.4 µL/min/mg, the half-life [21] was 168 min and the Activity [32] was “Non-Toxic”. The Tmax [22] was 30 min, the AUC(0-t) at 30 h [23] was 283 ng·h/mL and the Cmax [24] was 130 ng/mL. The Activity [33] was “Active”, the half-life at 1 µM [26] was 23.8 min and the IC50 [1] was 53 nM. It also gave a microsomal CLint at 1 µM [28] of 132 µL/min/mg.

For `C=CC(=O)Nc1cccc2c1cc(C)n2-c1nc2c(c(NCc3cccc(O)c3)n1)CCC2`, the IC50 [2] was 1200 nM and the IC50 [1] was 26 nM.

With `Cc1cc2c(C(=N)N)cccc2n1-c1nc2c(c(NCc3cccc(O)c3)n1)CCC2` the IC50 [1] was 233 nM.

`CON(C)C(=O)c1cccc2c1cc(C)n2-c1nc2c(c(NCc3cccc(O)c3)n1)CCC2` showed an IC50 [1] of 863 nM.
